Data on four molecules can be found in US11712439B2, “Methods and materials for identifying and treating bet inhibitor-resistant cancers” (Mayo Foundation for Medical Education and Research, priority 2017, dated 2023).

Molecules are shown by their SMILES. Where a SMILES comes first, the peptide text is derived from it. The star is where a group is joined. Cbz = O=C(OCc1ccccc1)*

Test [1] has as its system BRD2/3/4. The test can be described thus: Western blot and RT-qPCR of BRD2/3/4 in inhibitor-treated LNCaP cells. The note with it: 8 hours, Bortezomib 200 nM, MG132 20 μM; for BRD2/3/4 protein level: MLN4924 200 nM. The format is cell-based, human. The protocol:
(§1) Cell lysates or immunoprecipitates were subjected to SDS-PAGE, and proteins were transferred to nitrocellulose membranes (GE Healthcare Sciences). The membranes were blocked in Tris-buffered saline (TBS, pH 7.4) containing 5% non-fat milk and 0.1% Tween-20, washed twice in TBS containing 0.1% Tween-20, and incubated with primary antibody overnight at 4° C., followed by secondary antibody for 1 hour at room temperature. The proteins of interest were visualized using ECL chemiluminescence system (Santa Cruz Biotechnology). Densitometry analysis of protein bands was analyzed on the Gel-Pro Analyzer software.
Total RNA was isolated from transiently transfected cells using the Trizol reagent (Thermo Fisher Scientific), and cDNA was reverse-transcribed using the Superscript RT kit (TOYOBO, Japan) according to the manufacturer's instructions. PCR amplification was performed using the SYBR Green PCR master mix Kit (TOYOBO, Japan). All quantization was normalized to the level of endogenous control GAPDH. The primer sequences for the SYBR green qPCR used were as follows: BRD2-F: 5′-[…]-3′ (SEQ ID NO:10); BRD2-R: 5′-[…]-3′ (SEQ ID NO:11); BRD3-F: 5′-[…]-3′ (SEQ ID NO:12); BRD3-R: 5′-[…]-[…]-3′ (SEQ ID NO:13); BRD4-F: 5′-[…]-GAG-3′ (SEQ ID NO:14); BRD4-F: 5′-[…]-3′ (SEQ ID NO:15); RAC1-F: 5′-[…]-3′ (SEQ ID NO:16); RAC1-R: 5′-[…]-3′ (SEQ ID NO:17); FDFT1-F: 5′-ACTAT-[…]-3′ (SEQ ID NO:18); FDFT1-R: 5′-[…]-[…]-3′ (SEQ ID NO:19); DHCR24-F: 5′-[…]-GAGC-3′ (SEQ ID NO:20); DHCR24-R: 5′-[…]-3′ (SEQ ID NO:21); DHCR7-F: 5′-[…]-3′ (SEQ ID NO:22); DHCR7-R: 5′-[…]-3′ (SEQ ID NO:23); MVD-F: 5′-[…]-3′ (SEQ ID NO:24); MVD-R: 5′-CACAC-[…]-3′ (SEQ ID NO:25); PSA-F: 5′-[…]-[…]-3′ (SEQ ID NO:26); PSA-R: 5′-[…]-3′ (SEQ ID NO:27); TMPRSS2-F: 5′-[…]-3′ (SEQ ID NO:28); TMPRSS2-R: 5′-[…]-3′ (SEQ ID NO:29); MYC-F: 5′-[…]-3′ (SEQ ID NO:30); MYC-R: 5′-CTTGT-[…]-3′ (SEQ ID NO:31); AR-F: 5′-[…]-TCACC-3′ (SEQ ID NO:32); AR-R: 5′-[…]-3′ (SEQ ID NO:33); GAPDH-F: 5′-[…]-3′ (SEQ ID NO:34); and GAPDH-R: 5′-[…]-3′ (SEQ ID NO:35).
(In general: In western blotting, separated proteins are transferred to a membrane and probed.)

For test [2], the system named is C4-2 cells. The test can be described thus: Cell proliferation assay (MTS) and trypan blue assay, C4-2 cells. It is filed as cell-based, human. The note with it: SPOP-F133V C4-2 cells, GDC-0068 0.2 μM with JQ1 0.25 μM, 5 days. The protocol:
CellTiter 96® AQueous One Solution Cell Proliferation Assay (MTS) (Promega) was used to measure cell growth according to the manufacturer's instructions. Briefly, cells were plated in 96-well plates at a density of 2,000 cells per well. At the indicated times, 20 μL of Cell Titer 96R Aqueous One Solution Reagent was added to medium. After incubating for 1 hour at 37° C. in the cell incubator, cell growth was measured in a microplate reader at 490 nm.
Trypan blue assay was performed to measure cell growth according to the manufacturer's instructions. Briefly, cells were plated in 6-well plates at a density of about 5×10^4 to about 1×10^5 cells per well. At the indicated time points, cells were trypsinized and suspended in 1 mL 1×PBS. 100 μL cells and 100 μL trypan blue solution (Sigma-Aldrich) were mixed, and the number of viable cells was measured using the Bio-Rad automated cell counter.

Test [3] concerns C4-2 xenograft tumors. The test can be described thus: Prostate cancer xenografts in mice, tumor volume. The note with it: SPOP-F133V C4-2 xenografts, GDC-0068 100 mg/kg with JQ1 50 mg/kg, 5 days a week, day 21. The format is in vivo. On the procedure: 6-week-old NOD-SCID IL-2-receptor gamma null (NSG) mice were generated and randomly divided into different experimental groups as indicated. All mice were housed in standard conditions with a 12-hour light/dark cycle and access to food and water ad libitum. For BRD2/3/4 knockdown studies, C4-2 cells (5×10^6), infected with lentivirus expressing empty vector (EV) or HA-SPOP-F133V mutant in combination with control shRNA or BRD2/3/4-specific shRNA, were mixed with Matrigel (in 100 μL 1×PBS plus 100 μL Matrigel (BD Biosciences)) and injected s.c. into the right flank of mice. […] Growth in tumor volume was measured in a blinded fashion using digital caliper, and tumor volumes were estimated using the formula (L×W2)/2, where L is length of tumor and W is width. The volumes of tumors were compared, and P values were determined by a two-tailed Student's t test. Upon the completion of treatment, tumor grafts were harvested. Tumor tissues were divided, and a portion was subjected to FFPE. the rest was frozen for protein and RNA extraction.

For test [4], the system named is AKT-mTORC1 pathway. The test can be described thus: Western blot of AKT and S6K phosphorylation in C4-2 cells. The format is cell-based, human. The note with it: SPOP-F133V C4-2 cells, GDC-0068 1 μM, 24 hours. The protocol: as §1
Test [5] concerns solid tumors. The note with it: patients with solid tumors (Saura et al. 2017); cited from earlier work.
The test system of test [6] is BRD2/3/4 proteins. Nature of the test: Western blot of 293T cells transfected with SPOP and BRD2/3/4, with or without MG132. The format is cell-based, human. The note with it: 20 μM MG132 for 8 hours. On the procedure: as §1

For the molecule `CC(C)C[C@H](NC(=O)[C@H](Cc1ccccc1)NC(=O)c1cnccn1)B(O)O` [Bortezomib], in test [1], the “BRD2/3/4 mRNA expression” value is “not mRNA expression” and the BRD2/3/4 protein level result is “increased BRD2/3/4 protein”.

Turning to `CC(C)NC[C@@H](C(=O)N1CCN(c2ncnc3c2[C@H](C)C[C@H]3O)CC1)c1ccc(Cl)cc1` [GDC-0068], the “SPOP mutation-conferred resistance to BET inhibitor, cells in culture” value in test [2] is “completely overcame”. Moreover, the “SPOP mutation-conferred resistance to BET inhibitor, tumors in mice” value in test [3] is “completely overcame”. Also, the “SPOP mutation-induced activation of AKT downstream pathways” value in test [4] was “abolished”. The “Antitumor efficacy in patients” value in test [5] is given as “effective antitumor efficacy”.

Regarding `CC(C)C[C@@H](C=O)NC(=O)[C@H](CC(C)C)NC(=O)[C@H](CC(C)C)NC(=O)OCc1ccccc1` [MG132] (Cbz-Leu-Leu-Leu-aldehyde), in test [1], the “BRD2/3/4 mRNA expression” value is listed as “not mRNA expression” and the BRD2/3/4 protein level entry was “increased BRD2/3/4 protein”. Also, in test [6], the “Effect on the decrease of BRD2/3/4 proteins caused by wild-type SPOP” value is “completely reversed”.

Turning to `NS(=O)(=O)OC[C@@H]1C[C@@H](n2ccc3c(N[C@H]4CCc5ccccc54)ncnc32)C[C@@H]1O` [MLN4924], the BRD2/3/4 protein level entry in test [1] was “caused accumulation of BRD2/3/4 at protein level”.
